The results in this text go back to US12157745B2, “Heterocyclic systems and pharmaceutical compositions thereof” (University of Sharjah, priority 2018, dated 2024).

One test addresses T1, glutathione reductase (Homo sapiens, UniProt P00390).
T1 construct: HEK293T cells were lysed using M-PER; endogenous in cells; host or cells: HEK293T lysate
The experiment in a line: DARTS proteomic assay. Type of test: binding. Conditions: dose-dependent manner, FIG. 12. As for the experimental part: (§1) The unique properties of compound it prompted an in-depth analysis to explore its potential novel targets.
(§2) A DARTS assay was used to assess the binding of compound 1t. HEK293T cells were lysed using M-PER (Thermo Scientific, Inc.) supplemented with protease and phosphatase inhibitors (Lysis buffer). 4.7 mg/mL of protein and TNC buffer (10 mM Tris, 140 mMNaCl, 5 mM CaCl2)) was added, compound it was diluted in DMSO to 3 different concentrations (0.01 μM, 0.1 μM, 1 μM) and incubated for one hour at room temperature. Trypsin (Promega) was added and incubated for 3 hours at 37° C. Thereafter, M-PER lysis buffer was added and the samples were concentrated with Microcon 10K centrifugal filters. The proteins were identified by gel electrophoresis liquid chromatography mass spectroscopy (GelLCMS).

The target of test [1] is T2, inositol-3-phosphate synthase (Homo sapiens, UniProt Q9NPH2).
T2 construct: HEK293T cells were lysed using M-PER; endogenous in cells; host or cells: HEK293T lysate
T2 sequence (Q9NPH2 whole entry): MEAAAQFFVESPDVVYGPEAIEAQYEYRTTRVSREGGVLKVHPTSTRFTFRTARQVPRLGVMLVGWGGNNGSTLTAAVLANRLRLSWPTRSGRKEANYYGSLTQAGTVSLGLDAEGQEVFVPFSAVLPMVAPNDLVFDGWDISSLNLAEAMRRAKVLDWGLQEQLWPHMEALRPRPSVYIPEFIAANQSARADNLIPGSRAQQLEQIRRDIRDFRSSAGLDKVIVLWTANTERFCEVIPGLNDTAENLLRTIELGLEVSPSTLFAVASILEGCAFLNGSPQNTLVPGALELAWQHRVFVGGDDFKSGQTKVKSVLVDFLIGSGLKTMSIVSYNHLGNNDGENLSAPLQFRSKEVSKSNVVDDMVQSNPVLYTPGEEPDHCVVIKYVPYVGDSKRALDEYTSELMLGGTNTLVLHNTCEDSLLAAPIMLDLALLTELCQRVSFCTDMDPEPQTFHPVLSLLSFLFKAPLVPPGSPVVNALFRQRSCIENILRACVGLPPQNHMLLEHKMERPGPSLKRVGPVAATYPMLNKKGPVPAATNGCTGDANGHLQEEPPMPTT
The experiment in a line: DARTS proteomic assay. Type of test: binding.
Excerpt: as §1
(§3) Similarly, deregulated inositol metabolism has been observed in a number of diseases, including cancer, where inositol modulates different critical pathways in disease progression. Moreover, it is expressed consistently in bipolar disorders and Alzheimer's diseases. […] Likewise, the role of glutathione reductase is well known in cancer progression and chemoresistance. The equilibrium between the glutathione disulphide ratio is critical not only in cancer progression but also in increased oxidative stress which can lead to other disorders.
as §2

Test [2] has as its target T3, transferrin receptor proteins (Homo sapiens, UniProt P02786).
T3 construct: HEK293T cells were lysed using M-PER; endogenous in cells; host or cells: HEK293T lysate
The experiment in a line: DARTS proteomic assay. Type of test: binding.
Excerpt: as §1, §3, §2

The target of the next test is T4, cytosol aminopeptidase (Homo sapiens, UniProt P28838).
T4 construct: HEK293T cells were lysed using M-PER; endogenous in cells; host or cells: HEK293T lysate
T4 sequence (P28838 whole entry): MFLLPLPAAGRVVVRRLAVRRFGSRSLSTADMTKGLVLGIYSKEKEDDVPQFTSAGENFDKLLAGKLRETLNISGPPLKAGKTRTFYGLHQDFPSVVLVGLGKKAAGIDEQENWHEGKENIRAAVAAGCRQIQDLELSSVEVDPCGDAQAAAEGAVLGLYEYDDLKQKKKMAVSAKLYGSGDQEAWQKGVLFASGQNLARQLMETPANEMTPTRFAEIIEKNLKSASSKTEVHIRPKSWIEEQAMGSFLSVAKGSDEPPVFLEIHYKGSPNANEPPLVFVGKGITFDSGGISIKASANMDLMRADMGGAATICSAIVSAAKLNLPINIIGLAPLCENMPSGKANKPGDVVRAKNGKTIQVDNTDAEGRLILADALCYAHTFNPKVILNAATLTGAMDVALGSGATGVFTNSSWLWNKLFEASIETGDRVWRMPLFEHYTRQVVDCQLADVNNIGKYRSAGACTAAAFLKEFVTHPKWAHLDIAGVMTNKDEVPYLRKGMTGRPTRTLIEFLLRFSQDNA
The experiment in a line: DARTS proteomic assay. It counts as binding. The text has this:
(§4) The unique properties of compound it prompted an in-depth analysis to explore its potential novel targets. […] Mammalian thioredoxin reductases (TrxRs) are selenocysteine-containing homodimericflavin enzymes that catalyze the NADPH-dependent reduction of oxidized thioredoxins. […] Therefore, inhibiting this enzyme should form the foundation of a novel anticancer lead drug candidate. Many drug companies around the world are trying to design drugs that target this enzyme, however, until now there is no clinical anti-cancer drug that specifically targets TrxR although some drugs have been reported to inhibit TrxR to varying extents. […] One of the hurdles in developing a successful TrxR inhibitor is its cross reactions with thiols present inside the cells. […] Moreover, according to many reports, inhibiting excessive TrxR levels will also […] of Parkinson's disease as well as Alzheimer's disease. On the other hand, increased aminopeptidases are typically observed in many cancer tissues and play a key role in tumor cell proliferation, angiogenesis, and tumor invasiveness by regulating extracellular matrix degradation and cell signaling and recognition. […] A DARTS assay was used to assess the binding of compound 1t. HEK293T cells were lysed using M-PER (Thermo Scientific, Inc.) supplemented with protease and phosphatase inhibitors (Lysis buffer). 4.7 mg/mL of protein and TNC buffer (10 mM Tris, 140 mMNaCl, 5 mM CaCl2)) was added, compound it was diluted in DMSO to 3 different concentrations (0.01 μM, 0.1 μM, 1 μM) and incubated for one hour at room temperature. Trypsin (Promega) was added and incubated for 3 hours at 37° C. Thereafter, M-PER lysis buffer was added and the samples were concentrated with Microcon 10K centrifugal filters. The proteins were identified by gel electrophoresis liquid chromatography mass spectroscopy ([…]).

A further test concerns the target T5, thioredoxin reductase (Homo sapiens, UniProt Q16881).
T5 construct: HEK293T cells were lysed using M-PER; endogenous in cells; host or cells: HEK293T lysate
The experiment in a line: DARTS proteomic assay. It counts as binding. Conditions: FIG. 9.
Excerpt: as §4

The next test relates to MCF7. The experiment in a line: Full dose-response, survival of cancer cell line (SRB assay). It counts as cell-based. The settings on record: Homo sapiens, breast cancer, 48 hours of drug treatment, average of three individual experiments. The text has this: (§5) Dulbecco's Modified Eagles Medium (DMEM), RPMI 1640 medium and propidium iodide (PI) were purchased from Sigma Aldrich (Darmstadt, Germany). For western blot, the antibodies; c-Myc, p^53, p^21, Bax, Bid, BclxL, GAPDH, caspase-3, caspase-9, p-ATM, p-ATR, p-Chk1, p-Chk2, p-P^53, and p-H2AX along with respective mouse/rabbit secondary antibodies were purchased from Cell Signaling Technology (Danvers, MA, USA). FITC Annexin V Apoptosis kit was purchased from BD Biosciences (New Jersey, USA). All other chemicals and solvents used were of standard analytical grade. The stock solutions of SIMR compounds were made in 100% DMSO and working solutions for treatments never exceeded >1% DMSO. The cell lines were gifted from Radiobiology and Experimental Radio Oncology lab, University Cancer Center, Hamburg University, Hamburg, Germany. F180 and HCT116 cells were cultured in DMEM media while MCF-7 and SKBR3 cells were cultured in RPMI along with 10% FBS and 5% CO2 in a humidified incubator at 37° C. The cells were grown on polystyrene T-75 (75 cm^2) culture flasks and all the experiments were performed at ˜70% cell confluency.
(§6) SRB assay was performed on DU-143 and MCF-7 cells in order to find out the sub-lethal dosage (IC50) of the synthesized compounds based on reported method with minor modifications. Briefly, 1×10^4 cells were seeded in a 96-well plate overnight and were treated with different concentrations of compounds and incubated further for 48 hours. The wells which were devoid of any treatment served as controls. After the treatment time, the plates were incubated with 50% trichloroacetic acid (TCA) at 4° C. for 1 hour. The cells were then washed, dried and exposed to 1% acetic acid for short period. Two hundred microliters of 10 mMtris base solution was then added with 10 min incubation after drying the plates and the OD was read at 492 nm by using a Multiskan™ GO (Thermo Scientific, USA) microplate Spectrophotometer.

The next test relates to HCT116. Described as above. Conditions: Homo sapiens, HCT-116; colon cancer; 48 hours of drug treatment; average of three individual experiments. It counts as cell-based.
Excerpt: as §5, §6

The next test has as its system SKBR3. Described as above. It counts as cell-based. The settings on record: Homo sapiens, SK-BR-3; breast cancer; 48 hours of drug treatment; average of three individual experiments.
Excerpt: as §5, §6

T5 sequence (Q16881 151-649 limits assumed): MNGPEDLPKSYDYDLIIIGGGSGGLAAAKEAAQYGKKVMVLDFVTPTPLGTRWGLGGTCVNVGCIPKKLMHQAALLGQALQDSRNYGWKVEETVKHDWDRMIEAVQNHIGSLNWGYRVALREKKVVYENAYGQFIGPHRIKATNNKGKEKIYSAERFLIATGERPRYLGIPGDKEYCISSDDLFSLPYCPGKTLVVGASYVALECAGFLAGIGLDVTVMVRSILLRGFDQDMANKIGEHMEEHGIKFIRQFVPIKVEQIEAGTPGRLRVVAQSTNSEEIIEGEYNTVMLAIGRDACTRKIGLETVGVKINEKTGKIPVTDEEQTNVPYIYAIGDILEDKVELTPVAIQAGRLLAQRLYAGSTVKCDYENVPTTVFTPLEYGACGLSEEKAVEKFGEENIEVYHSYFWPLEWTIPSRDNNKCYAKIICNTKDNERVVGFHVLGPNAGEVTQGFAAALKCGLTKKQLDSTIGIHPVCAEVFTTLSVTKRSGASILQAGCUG
T1 sequence (P00390 44-522): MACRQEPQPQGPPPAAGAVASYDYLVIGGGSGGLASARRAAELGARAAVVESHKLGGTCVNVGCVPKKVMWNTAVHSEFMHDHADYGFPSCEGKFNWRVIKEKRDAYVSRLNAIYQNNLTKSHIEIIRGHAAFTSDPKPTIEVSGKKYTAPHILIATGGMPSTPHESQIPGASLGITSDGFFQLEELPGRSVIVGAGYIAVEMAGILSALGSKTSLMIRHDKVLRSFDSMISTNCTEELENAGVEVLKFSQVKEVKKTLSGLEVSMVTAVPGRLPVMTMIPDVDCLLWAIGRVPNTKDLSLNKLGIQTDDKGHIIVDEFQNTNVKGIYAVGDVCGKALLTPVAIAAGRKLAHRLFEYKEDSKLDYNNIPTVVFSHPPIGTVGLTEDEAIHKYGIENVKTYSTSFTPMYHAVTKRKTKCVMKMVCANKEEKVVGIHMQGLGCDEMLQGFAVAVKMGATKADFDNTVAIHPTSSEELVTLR
T3 sequence (P02786 whole entry): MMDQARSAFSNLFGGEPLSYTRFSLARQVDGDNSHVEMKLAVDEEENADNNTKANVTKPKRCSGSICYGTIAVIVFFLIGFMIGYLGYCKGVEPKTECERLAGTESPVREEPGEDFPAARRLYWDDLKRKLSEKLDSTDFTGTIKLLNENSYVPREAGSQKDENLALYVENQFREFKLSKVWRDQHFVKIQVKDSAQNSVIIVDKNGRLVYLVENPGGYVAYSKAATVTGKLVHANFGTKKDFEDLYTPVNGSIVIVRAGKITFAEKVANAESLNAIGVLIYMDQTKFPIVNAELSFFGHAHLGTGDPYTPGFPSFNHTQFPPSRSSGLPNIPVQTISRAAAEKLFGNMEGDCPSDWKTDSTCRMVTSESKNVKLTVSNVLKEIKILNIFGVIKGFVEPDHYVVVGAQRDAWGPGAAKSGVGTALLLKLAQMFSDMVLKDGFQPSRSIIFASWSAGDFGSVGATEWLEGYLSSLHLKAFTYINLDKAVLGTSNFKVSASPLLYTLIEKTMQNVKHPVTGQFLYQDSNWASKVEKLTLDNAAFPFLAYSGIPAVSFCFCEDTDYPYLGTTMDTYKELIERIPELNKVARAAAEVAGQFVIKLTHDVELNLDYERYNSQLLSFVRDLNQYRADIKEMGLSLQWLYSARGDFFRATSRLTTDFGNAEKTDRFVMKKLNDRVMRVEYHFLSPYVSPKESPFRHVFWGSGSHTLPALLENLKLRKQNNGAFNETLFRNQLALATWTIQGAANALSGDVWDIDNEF

Take `CC1(C)[C@H]2COc3ccc4ccccc4c3[C@H]2N=C2SC(c3ccccc3)=C(c3ccccc3)N21` [Compound 1t]: the “Modulation of glutathione reductase function” value on glutathione reductase is on record as “modulated the functions”. Further, the “Affinity to bind inositol-3-phosphate synthase” value in test [1] is reported as “dose-dependent affinity”. For the same compound, the “Affinity to transferrin receptors” value in test [2] is “higher affinity”. Besides, the “Targeting of cytosolic aminopeptidase” value on cytosol aminopeptidase is listed as “dose-dependent manner”. For the same compound, the “Concentration of highest effect on TrxR” value on thioredoxin reductase was determined as 1 µM. The “Modulation of TrxR” value at thioredoxin reductase (HEK293T lysate, 0.01, 0.1, 1 μM) is “concentration-dependent modulation”. Moreover, the IC50 in the test with MCF7 is 1.91 µM; in the test with HCT116, 1.5 µM; in the test on SKBR3, 1.9 µM.
